Experiments:
[1] = Caco-2 bidirectional assay (A-B and B-A) to study the effect of piperine (P-gp inhibitor) on the permeability; type: in vitro ADME; settings: human
Protocol: (§1) Caco-2 cells were cultured in MEM media with 10% serum and seeded at a density of 75000 cells per mL and cultured for 21 days in a 24-well trans-well plate at 37° C., 5% CO2. The monolayer integrity was checked intermittently (Day 0-21) using Trans Epithelial Electric Resistance (TEER). Cells were treated with drugs as follows:
(§2) 2) Bidirectional Assay (A-B and B-A) to Study the Effect of Piperine (P-Gp Inhibitor) on the Permeability
(§3) For A-B, 400 μL samples were added to the wells as per the plate setup to the apical side in duplicates with 800 μL HBSS pH 7.4 in the basal wells. Samples were collected at 60, 90 and 120 minutes from the basal side. Mass balance samples at 0 and 120 minutes were collected from the apical side.
(§4) For B-A, 800 μL of the respective dilutions were added to the basal side in duplicates with 400 μL HBSS pH 7.4 in the apical wells. Samples were collected at 60, 90 and 120 minutes from the apical side. Mass balance samples at 0 and 120 minutes were collected from the basal side. The sample were analyzed on LCMS-MS.
(§5) At the end of the experiment the monolayer integrity was checked using and Lucifer yellow, calculating the % rejection of Lucifer yellow by incubating cells with 100 μg/mL Lucifer.
(§6) The apparent permeability (Papp) in units per second can be calculated by using the following equation,
(§7) For Lucifer yellow, % Lucifer Yellow Passage=[RFU(test)−RFU(blank)/RFU(equilibrium)−RFU(blank)]*100

Caco-2 cells = assay: as above; type: in vitro ADME; settings: across the caco-2 monolayer; conclusion in words
Protocol: as §1, §2, §3, §4, §5, §6, §7

[2] = Digoxin 10 μM, Caco-2 monolayer, HBSS pH 7.4

Q: What does the source list for `C[C@H]1O[C@@H](O[C@H]2[C@@H](O)C[C@H](O[C@H]3[C@@H](O)C[C@H](O[C@H]4CC[C@@]5(C)[C@H](CC[C@@H]6[C@@H]5C[C@@H](O)[C@]5(C)[C@@H](C7=CC(=O)OC7)CC[C@]65O)C4)O[C@@H]3C)O[C@@H]2C)C[C@H](O)[C@@H]1O` [Digoxin]?
A: efflux ratio at 120 min, 10 μM ([1]; Caco-2, pH 7.4, Digoxin 10 μM, Papp B-A/Papp A-B): 12; Papp A→B at 120 min, 10 μM [1, 2]: 0.829 ×10⁻⁶ cm/s; Papp B→A at 120 min, 10 μM [1, 2]: 9.97 ×10⁻⁶ cm/s

Q: Which results are given for `CO[C@H]1/C=C/O[C@@]2(C)Oc3c(C)c(O)c4c(O)c(c5c(nc6cc(C)ccn65)c4c3C2=O)NC(=O)/C(C)=C\C=C\[C@H](C)[C@H](O)[C@@H](C)[C@@H](O)[C@@H](C)[C@H](OC(C)=O)[C@@H]1C` [Rifaximin, [(2S,16Z,18E,20S,21S,22R,23R,24R,25S,26S,27S,28E)-5,6,21,23,25-pentahydroxy-27-methoxy-2,4,11,16,20,22,24,26-octamethyl-2,7 (epoxypentadeca-[1,11,13]trienimino)benzofuro[4,5-e]pyrido[1,2-a]-benzimidazole 1,15(2H)-dione,25-acetate]]?
A: Papp A→B at 120 min, 30 μM ([1]; Caco-2, pH 7.4): 1.08 ×10⁻⁶ cm/s; Papp B→A at 120 min, 30 μM ([1]; Caco-2, pH 7.4): 6.17 ×10⁻⁶ cm/s; Permeability classification (Caco-2 cells): high

Source: patent publication US11224591B2 (Cipla Limited, priority 2016, dated 2022)
